The text below walks through data of patent US10413505B1, “Pharmaceutical compositions and methods of using the same” (priority 2017, dated 2019).

For data set [1], the system named is Sprague Dawley rats. As to the kind of experiment: Example 10 cocaethylene HCl intranasal toxicity, Repeat-Dose Phase. The class given is in vivo, rat. As to the method:
Cocaethylene hydrochloride in the vehicle was administered by intranasal instillation once daily for 14 days to a group (Group 2) of Sprague Dawley rats at a dosage level of 2.1 mg/kg/day. […] The dose volume was 0.22 mL/kg, divided between the 2 nares, for both groups. Groups 1 and 2 each consisted of 15 animals/sex. Following 14 days of dose administration, 10 animals/sex/group were euthanized; the remaining […] animals/sex/group were euthanized following a 14-day nondosing (recovery) period. Criteria for evaluation included daily mortality observations, daily clinical observations, detailed physical observations, body weights, food consumption, clinical pathology (hematology, coagulation, serum chemistry, and urinalysis), organ weights, gross pathology, and microscopic examination of select tissues.
(§1) The vehicle and test article formulations were administered by intranasal instillation into each naris via a syringe equipped with stainless steel-shafted, stainless steel ball-tipped dosing cannula once (Single-Dose Phase) or once daily for 14 consecutive days (Repeat-Dose Phase), through the day prior to the primary necropsy. The same syringe and dosing cannula was used to administer the dose across both nares for a given animal on a given dosing day. The total dose volume administered per dose was split approximately equally across each naris, such that approximately half of the total dose volume was administered into one naris, and the remaining was administered into the other naris. Treatment administration across each naris for an individual animal occurred at approximately the same time. The dose volume for all groups was 0.22 mL/kg. Individual doses were based on the most recently recorded body weights. Adjusted doses became effective the day of collection of the weekly body weights. The first day of dosing was Study Day 0; the first week of dosing was Study Week 0.
(§2) All animals were observed twice daily, once in the morning and once in the afternoon, for mortality and moribundity.
(§3) Clinical examinations were performed at the time of dose administration and 1 to 2 hours following dose administration. During the recovery period, the animals were observed once daily. The absence or presence of findings was recorded for individual animals at the scheduled intervals. For the Single-Dose Phase, detailed physical examinations were conducted on all animals within 4 days of receipt, on the day of randomization, and on Study Days 0, 1, 7, and 14. For the Repeat-Dose Phase, detailed physical examinations were conducted on all animals within 4 days of receipt, on the day of randomization, weekly (±2 days) during the study period, and on the day of the scheduled necropsies. Daily observations during the recovery period were not necessary on days when detailed physical examinations were conducted.
(§4) Individual body weights were recorded within 4 days of receipt, on the day of randomization, Study Day 0 (prior to dosing), weekly (±2 days) during the study period, and on the day prior to the scheduled necropsies (nonfasted). Mean body weights and mean body weight changes were calculated for the corresponding intervals. Final body weights (fasted) were recorded on the day of the scheduled necropsies.
(§5) Cage food weights were recorded once weekly (±2 days) beginning following randomization and throughout the study period. Food consumption was calculated as g/animal/day for the corresponding body weight intervals.
(§6) Blood and urine samples for clinical pathology evaluations (hematology, coagulation, serum chemistry, and urinalysis) were collected from all animals assigned to the scheduled necropsies. The animals were fasted overnight prior to blood collection while in metabolism cages for urine collection. Blood was collected from a jugular vein and from the vena cava at the time of necropsy. Blood was collected into tubes containing potassium K2EDTA (hematology), sodium citrate (coagulation), or no anticoagulant (serum chemistry). […]

Data set [2] relates to Sprague Dawley rats. The data set can be described thus: Example 10 cocaethylene HCl intranasal toxicity, Single-Dose Phase. The class given is in vivo, rat. As to the method: Cocaethylene HCl in the vehicle (deionized water) was administered by intranasal instillation once to a group (Group 2) of Sprague Dawley rats at a dose level of 2.1 mg/kg. […] The dose volume was 0.22 mL/kg, divided between the 2 nares, for both groups. Groups 1 and 2 each consisted of 20 animals/sex. Following dose administration, 10 animals/sex/group were euthanized on Study Day 1; the remaining 10 animals/sex/group were euthanized following a 14-day non-dosing (recovery) period. Criteria for evaluation included daily mortality observations, daily clinical observations, detailed physical observations, body weights, food consumption, clinical pathology (hematology, coagulation, serum chemistry, and urinalysis), organ weights, gross pathology, and microscopic examination of select tissues.
as §1, §2, §3, §4, §5, §6

Setting [3] is: 2.1 mg/kg/day for 14 days, intranasal instillation.
[4] abbreviates: 2.1 mg/kg once, intranasal instillation.

Structures are written as SMILES. Where a name gives a salt, the structure may show the parent alone.

In the case of `CCOC(=O)[C@@H]1C2CCC(C[C@@H]1OC(=O)c1ccccc1)N2C` (stereo partly drawn) [cocaethylene HCl, cocaethylene hydrochloride], the tolerability entry in the data set with Sprague Dawley rats [1] (2.1 mg/kg once or once daily for 14 days, intranasal instillation) is listed as “well tolerated”. Further, in the data set with Sprague Dawley rats [1] (setting [3]), the body weights entry is listed as “unaffected”; the clinical observations result is “no test article-related clinical observations”; the food consumption result was “unaffected”; the “hematology and coagulation parameters” value is given as “unaffected”. Moreover, in the data set with Sprague Dawley rats [1] (setting [3]), the “macroscopic examination at necropsy” value is given as “no test article-related macroscopic findings”, the organ weights result is “unaffected”, the serum chemistry parameters result is listed as “unaffected” and the survival result was “All animals survived”. Besides, in the data set on Sprague Dawley rats [1] (setting [3]), the urinalysis parameters entry was “unaffected”. For the same compound, the “microscopic examination (nasal cavity with turbinates)” value in the data set on Sprague Dawley rats [1] (2.1 mg/kg/day for 14 days, intranasal instillation, also after 14-day recovery) is given as “No test article-related microscopic findings”. The “pH of the dosing formulation” value in the data set with Sprague Dawley rats [1] (Repeat-Dose Phase, 9.6 mg/mL in deionized water, pH meter) was determined as 2.81. Moreover, the “no-observed-effect level (NOEL)” value in the data set on Sprague Dawley rats [1] (intranasal instillation once or once daily for 14 days) is recorded as 2.1 mg/kg/day. Also, in the data set on Sprague Dawley rats [2] (setting [4]), the body weights entry is listed as “unaffected”; the clinical observations result was “no test article-related clinical observations”; the food consumption entry is “unaffected”; the “hematology and coagulation parameters” value is reported as “unaffected”. In the data set with Sprague Dawley rats [2] (setting [4]), the “macroscopic examination at necropsy” value was “no test article-related macroscopic findings”, the organ weights entry is recorded as “unaffected”, the serum chemistry parameters result is given as “unaffected” and the survival entry is on record as “All animals survived”. Besides, in the data set with Sprague Dawley rats [2] (setting [4]), the urinalysis parameters entry is “unaffected”. Besides, the “microscopic examination (nasal cavity with turbinates)” value in the data set on Sprague Dawley rats [2] (2.1 mg/kg once, intranasal instillation, also after 14-day recovery) is listed as “No test article-related microscopic findings”. Also, in the data set with Sprague Dawley rats [2] (Single-Dose Phase, 9.6 mg/mL in deionized water, pH meter), the “pH of the dosing formulation” value is given as 2.81.
